Results as given in ChEMBL document CHEMBL3044836, “Synthesis, antimicrobial and cytotoxic activities of novel 4-trifluoromethyl-(1,2,3)-thiadiazolo-5-carboxylic acid hydrazide Schiffs bases” (Med Chem Res, 2013).
Converted amounts (≈) assume the structure as drawn.

Columns and labels:
Type in all cases: functional
Aspergillus niger [1] = assay: Antifungal activity against Aspergillus niger MTCC 1344 assessed as growth inhibition at 100 ug/ml after 48 hr by agar cup diffusion method; settings: MTCC 1344, 48 h, read-out: DIZ
Escherichia coli = assay: Antibacterial activity against Escherichia coli MTCC 443 assessed as growth inhibition by broth dilution method
Saccharomyces cerevisiae [2] = assay: Antifungal activity against Saccharomyces cerevisiae MTCC 36 assessed as growth inhibition at 150 ug/ml after 48 hr by agar cup diffusion method; settings: MTCC 36, 48 h, read-out: DIZ
Aspergillus niger [3] = assay: Antifungal activity against Aspergillus niger MTCC 1344 assessed as growth inhibition at 150 ug/ml after 48 hr by agar cup diffusion method; settings: MTCC 1344, 48 h, read-out: DIZ
Bacillus subtilis = assay: Antibacterial activity against Bacillus subtilis MTCC 441 assessed as growth inhibition by broth dilution method
Saccharomyces cerevisiae [4] = assay: Antifungal activity against Saccharomyces cerevisiae MTCC 36 assessed as growth inhibition at 100 ug/ml after 48 hr by agar cup diffusion method; settings: MTCC 36, 48 h, read-out: DIZ
[5] = system: Staphylococcus epidermidis; assay: Antibacterial activity against Staphylococcus epidermidis MTCC 435 assessed as growth inhibition by broth dilution method
Pseudomonas aeruginosa = assay: Antibacterial activity against Pseudomonas aeruginosa MTCC 741 assessed as growth inhibition by broth dilution method
Candida albicans [6] = assay: Antifungal activity against Candida albicans MTCC 227 assessed as growth inhibition at 100 ug/ml after 48 hr by agar cup diffusion method; settings: MTCC 227, 48 h, read-out: DIZ
Diutina rugosa [7] = assay: Antifungal activity against Candida rugosa NCIM 3462 assessed as growth inhibition at 100 ug/ml after 48 hr by agar cup diffusion method; settings: NCIM 3462, 48 h, read-out: DIZ
Diutina rugosa [8] = assay: Antifungal activity against Candida rugosa NCIM 3462 assessed as growth inhibition at 150 ug/ml after 48 hr by agar cup diffusion method; settings: NCIM 3462, 48 h, read-out: DIZ
Staphylococcus aureus = assay: Antibacterial activity against Staphylococcus aureus MTCC 96 assessed as growth inhibition by broth dilution method
Candida albicans [9] = assay: Antifungal activity against Candida albicans MTCC 227 assessed as growth inhibition at 150 ug/ml after 48 hr by agar cup diffusion method; settings: MTCC 227, 48 h, read-out: DIZ
Klebsiella pneumoniae = assay: Antibacterial activity against Klebsiella pneumoniae assessed as growth inhibition by broth dilution method
MDA-MB-231 = assay: Cytotoxicity against Homo sapiens (human) MDA-MB-231 cells assessed as cell viability at 10 uM after 48 hr by MTT assay relative to control; settings: MDA-MB-231, 48 h, read-out: Activity
MCF7 = assay: Cytotoxicity against Homo sapiens (human) MCF7 cells assessed as cell viability at 10 uM after 48 hr by MTT assay relative to control; settings: MCF7, 48 h, read-out: Activity

Row | SMILES | zone of inhibition at 100 µg/mL (Aspergillus niger [1]) [mm] | MIC (Escherichia coli; read-out: MIC) [µg/mL] | zone of inhibition at 150 µg/mL (Saccharomyces cerevisiae [2]) [mm] | zone of inhibition at 150 µg/mL (Aspergillus niger [3]) [mm] | zone of inhibition at 100 µg/mL (Saccharomyces cerevisiae [4]) [mm] | MIC (Pseudomonas aeruginosa; read-out: MIC) [µg/mL] | zone of inhibition at 100 µg/mL (Candida albicans [6]) [mm] | zone of inhibition at 100 µg/mL (Diutina rugosa [7]) [mm] | zone of inhibition at 150 µg/mL (Diutina rugosa [8]) [mm] | MIC (Staphylococcus aureus; read-out: MIC) [µg/mL] | zone of inhibition at 150 µg/mL (Candida albicans [9]) [mm] | MIC (Bacillus subtilis; read-out: MIC) [µg/mL] | MIC ([5]; read-out: MIC) [µg/mL] | viability at 10 µM (MDA-MB-231) [%] | viability at 10 µM (MCF7) [%] | MIC (Klebsiella pneumoniae; read-out: MIC) [µg/mL] | other results
1 | C/C(=N\NC(=O)c1snnc1C(F)(F)F)c1ccc([N+](=O)[O-])cc1 | 0 | 150 (≈ 417 µM) | 0 | 0 | 0 | 150 (≈ 417 µM) | 0 | 0 | 0 | 150 (≈ 417 µM) | 0 |  |  |  |  |  | MIC (Bacillus subtilis): > 150 µg/mL; MIC [5]: > 150 µg/mL; MIC (Klebsiella pneumoniae): > 150 µg/mL
2 | C/C(=N\NC(=O)c1snnc1C(F)(F)F)c1ccc(Br)cc1Br | 0 | 150 (≈ 318 µM) | 0 | 0 | 0 | 150 (≈ 318 µM) | 11 | 0 | 0 | 150 (≈ 318 µM) | 15 | 150 (≈ 318 µM) | 150 (≈ 318 µM) | 94.7 | 123 | 150 (≈ 318 µM) | 
3 | CC(C)=NNC(=O)c1snnc1C(F)(F)F | 0 | 150 (≈ 595 µM) | 0 | 0 | 0 | 150 (≈ 595 µM) | 0 | 0 | 0 | 150 (≈ 595 µM) | 0 | 150 (≈ 595 µM) | 150 (≈ 595 µM) |  |  | 150 (≈ 595 µM) | 
4 | O=C(NN=C1CCCC1)c1snnc1C(F)(F)F | 0 | 150 (≈ 539 µM) | 0 | 0 | 0 | 150 (≈ 539 µM) | 0 | 0 | 0 | 150 (≈ 539 µM) | 0 | 150 (≈ 539 µM) |  | 84.2 | 97.9 | 150 (≈ 539 µM) | MIC [5]: > 150 µg/mL
5 | O=C(NN=C1CCCCC1)c1snnc1C(F)(F)F | 0 | 150 (≈ 513 µM) | 0 | 0 | 0 |  | 0 | 0 | 0 | 150 (≈ 513 µM) | 7 | 150 (≈ 513 µM) | 150 (≈ 513 µM) | 78.6 | 97.2 | 150 (≈ 513 µM) | MIC (Pseudomonas aeruginosa): > 150 µg/mL
6 | O=C(NN=C1CCCCCC1)c1snnc1C(F)(F)F | 0 | 150 (≈ 490 µM) | 0 | 0 | 0 | 150 (≈ 490 µM) | 0 | 0 | 0 | 150 (≈ 490 µM) | 0 |  |  |  |  | 150 (≈ 490 µM) | MIC (Bacillus subtilis): > 150 µg/mL; MIC [5]: > 150 µg/mL
7 | O=C(N/N=C/c1ccc(Cl)cc1)c1snnc1C(F)(F)F | 0 |  | 0 | 0 | 0 | 150 (≈ 448 µM) | 0 | 0 | 0 | 150 (≈ 448 µM) | 0 |  |  |  |  | 150 (≈ 448 µM) | MIC (Escherichia coli): > 150 µg/mL; MIC (Bacillus subtilis): > 150 µg/mL; MIC [5]: > 150 µg/mL
8 | O=C(N/N=C/c1ccc(Br)cc1)c1snnc1C(F)(F)F | 0 |  | 0 | 0 | 0 |  | 0 | 0 | 0 | 150 (≈ 396 µM) | 0 |  | 150 (≈ 396 µM) |  |  | 150 (≈ 396 µM) | MIC (Escherichia coli): > 150 µg/mL; MIC (Bacillus subtilis): > 150 µg/mL; MIC (Pseudomonas aeruginosa): > 150 µg/mL
9 | O=C(N/N=C/c1ccc([N+](=O)[O-])cc1)c1snnc1C(F)(F)F | 0 | 150 (≈ 434 µM) | 0 | 0 | 0 | 150 (≈ 434 µM) | 0 | 0 | 0 | 150 (≈ 434 µM) | 0 | 150 (≈ 434 µM) | 150 (≈ 434 µM) |  |  | 150 (≈ 434 µM) | 
10 | CN(C)c1ccc(/C=N/NC(=O)c2snnc2C(F)(F)F)cc1 | 0 |  | 0 | 0 | 0 | 150 (≈ 437 µM) | 0 | 0 | 0 | 150 (≈ 437 µM) | 0 | 150 (≈ 437 µM) | 150 (≈ 437 µM) |  |  |  | MIC (Escherichia coli): > 150 µg/mL; MIC (Klebsiella pneumoniae): > 150 µg/mL
11 | O=C(N/N=C/c1ccc(O)cc1)c1snnc1C(F)(F)F | 0 | 150 (≈ 474 µM) | 0 | 0 | 0 |  | 0 | 0 | 0 | 150 (≈ 474 µM) | 0 | 150 (≈ 474 µM) | 150 (≈ 474 µM) |  |  |  | MIC (Pseudomonas aeruginosa): > 150 µg/mL; MIC (Klebsiella pneumoniae): > 150 µg/mL
12 | COc1ccc(/C=N/NC(=O)c2snnc2C(F)(F)F)cc1 | 0 | 150 (≈ 454 µM) | 0 | 0 | 0 | 150 (≈ 454 µM) | 0 | 0 | 0 |  | 0 | 150 (≈ 454 µM) | 150 (≈ 454 µM) | 87.3 | 101 | 150 (≈ 454 µM) | MIC (Staphylococcus aureus): > 150 µg/mL
13 | O=C(N/N=C/c1ccco1)c1snnc1C(F)(F)F | 0 | 150 (≈ 517 µM) | 0 | 0 | 0 | 150 (≈ 517 µM) | 0 | 0 | 0 | 150 (≈ 517 µM) | 0 | 150 (≈ 517 µM) | 150 (≈ 517 µM) | 89.5 | 100 | 150 (≈ 517 µM) | 
14 | O=C(N/N=C/c1cccs1)c1snnc1C(F)(F)F | 0 | 150 (≈ 490 µM) | 0 | 0 | 0 |  | 0 | 0 | 0 | 150 (≈ 490 µM) | 0 | 150 (≈ 490 µM) | 150 (≈ 490 µM) | 91.9 | 102 | 150 (≈ 490 µM) | MIC (Pseudomonas aeruginosa): > 150 µg/mL
15 | C/C(=N\NC(=O)c1snnc1C(F)(F)F)c1ccccc1 | 0 |  | 0 | 0 | 0 | 150 (≈ 477 µM) | 0 | 0 | 0 |  | 0 | 150 (≈ 477 µM) | 150 (≈ 477 µM) | 94.5 | 115 | 150 (≈ 477 µM) | MIC (Escherichia coli): > 150 µg/mL; MIC (Staphylococcus aureus): > 150 µg/mL
16 | CC1(C)S[C@@H]2[C@H](NC(=O)Cc3ccccc3)C(=O)N2[C@H]1C(=O)O [PENICILLIN G] |  | 12.5 (≈ 37.4 µM) |  |  |  | 12.5 (≈ 37.4 µM) |  |  |  | 1.56 (≈ 4.67 µM) |  | 1.56 (≈ 4.67 µM) | 3.12 (≈ 9.35 µM) |  |  | 6.25 (≈ 18.7 µM) | 
17 | CN[C@@H]1[C@H](O[C@H]2[C@H](O[C@H]3[C@H](O)[C@@H](O)[C@H](N=C(N)N)[C@@H](O)[C@@H]3N=C(N)N)O[C@@H](C)[C@]2(O)C=O)O[C@@H](CO)[C@H](O)[C@H]1O [STREPTOMYCIN] |  | 6.25 (≈ 10.7 µM) |  |  |  | 1.56 (≈ 2.69 µM) |  |  |  | 6.25 (≈ 10.7 µM) |  | 6.25 (≈ 10.7 µM) | 3.12 (≈ 5.37 µM) |  |  | 3.12 (≈ 5.37 µM) | 
